Data taken from patent US12552766B2, “Pesticidally active azole amide compounds” (SYNGENTA CROP PROTECTION AG, priority 2019, dated 2026).

Tests used:
Assay type in all cases: in vivo
[1] = system: Diabrotica Balteata (Corn Root Worm); assay: Example B1: Diabrotica balteata, spray on maize sprouts; settings: 96 h, application rate of 200 ppm, L2 larvae, 4 days after infestation, read-out: control in at least one of the two categories (mortality or growth inhibition)
Description: Maize sprouts placed onto an agar layer in 24-well microtiter plates were treated with aqueous test solutions prepared from 10′000 ppm DMSO stock solutions by spraying. After drying, the plates were infested with L2 larvae (6 to 10 per well). The samples were assessed for mortality and growth inhibition in comparison to untreated samples 4 days after infestation.

[2] = system: Chilo suppressalis (Striped Rice Stemborer); assay: Example B4: Chilo suppressalis, artificial diet; settings: 144 h, application rate of 200 ppm, L2 larvae, 6 days after infestation, read-out: control in at least one of the three categories (mortality, anti-feedant effect, or growth inhibition)
Description: 24-well microtiter plates with artificial diet were treated with aqueous test solutions prepared from 10′000 ppm DMSO stock solutions by pipetting. After drying, the plates were infested with L2 larvae (6-8 per well). The samples were assessed for mortality, anti-feeding effect, and growth inhibition in comparison to untreated samples 6 days after infestation. Control of Chilo suppressalis by a test sample is given when at least one of the categories mortality, anti-feedant effect, and growth inhibition is higher than the untreated sample.

[3] = system: Plutella xylostella (Diamond Back Moth); assay: Example B5: Plutella xylostella, artificial diet, 24-well; settings: 192 h, application rate of 200 ppm, eggs, 8 days after infestation, read-out: control in at least one of the two categories (mortality or growth inhibition)
Description: 24-well microtiter plates with artificial diet were treated with aqueous test solutions prepared from 10′000 ppm DMSO stock solutions by pipetting. After drying, Plutella eggs were pipetted through a plastic stencil onto a gel blotting paper and the plate was closed with it. The samples were assessed for mortality and growth inhibition in comparison to untreated samples 8 days after infestation.

[4] = system: Spodoptera littoralis (Egyptian Cotton Leaf Worm); assay: Example B9: Spodoptera littoralis, spray on cotton leaf discs; settings: foliar, 72 h, application rate of 200 ppm, L1 larvae, 3 days after infestation, read-out: control in at least one of the three categories (mortality, anti-feedant effect, or growth inhibition)
Description: Cotton leaf discs were placed onto agar in 24-well microtiter plates and sprayed with aqueous test solutions prepared from 10′000 ppm DMSO stock solutions. After drying the leaf discs were infested with five L1 larvae. The samples were assessed for mortality, anti-feeding effect, and growth inhibition in comparison to untreated samples 3 days after infestation. Control of Spodoptera littoralis by a test sample is given when at least one of the categories mortality, anti-feedant effect, and growth inhibition is higher than the untreated sample.

[5] = system: Plutella xylostella (Diamondback Moth); assay: Example B13: Plutella xylostella, artificial diet, 96-well; settings: 216 h, application rate of 500 ppm, eggs/L1 larvae, 9 days after infestation
Description: 96-well microtiter plates containing artificial diet were treated with aqueous test solutions, prepared from 10′000 ppm DMSO stock solutions, by a liquid handling robot. After drying, eggs (˜30 per well) were infested onto a netted lid which was suspended above the diet. The eggs hatch and L1 larvae move down to the diet. The samples were assessed for mortality 9 days after infestation.

[6] = system: Euschistus heros (Neotropical Brown Stink Bug); assay: Example B2: Euschistus heros, spray on soybean leaves; settings: 120 h, application rate of 200 ppm, N2 nymphs, 5 days after infestation, read-out: control in at least one of the two categories (mortality or growth inhibition)
Description: Soybean leaves on agar in 24-well microtiter plates were sprayed with aqueous test solutions prepared from 10′000 ppm DMSO stock solutions. After drying the leaves were infested with N2 nymphs. The samples were assessed for mortality and growth inhibition in comparison to untreated samples 5 days after infestation.

CC(NC(=O)c1cc(OCC(F)(F)F)cc(C(F)(F)F)c1)c1nc(Br)nn1-c1ncc(OCC(F)F)cn1 (stereo not drawn) [Compound P19, N-[1-[5-bromo-2-[5-(2,2-difluoroethoxy)pyrimidin-2-yl]-1,2,4-triazol-3-yl]ethyl]-3-(2,2,2-trifluoroethoxy)-5-(trifluoromethyl) benzamide]
≥ 80%: percent control (mortality or growth inhibition) at 200 ppm [1] | percent control (mortality, anti-feedant effect or growth inhibition) at 200 ppm [2] | percent control (mortality or growth inhibition) at 200 ppm [3] | percent control (mortality, anti-feedant effect or growth inhibition) at 200 ppm [4] | mortality at 500 ppm [5]

CC(NC(=O)c1cc(OCC(F)(F)F)cc(C(F)(F)F)c1)c1nc(Br)nn1-c1ccc(C#N)cn1 (stereo not drawn) [Compound P21, N-[1-[5-bromo-2-(5-cyano-2-pyridyl)-1,2,4-triazol-3-yl]ethyl]-3-(2,2,2-trifluoroethoxy)-5-(trifluoromethyl) benzamide]
≥ 80%: percent control (mortality or growth inhibition) at 200 ppm [1] | percent control (mortality, anti-feedant effect or growth inhibition) at 200 ppm [2] | percent control (mortality or growth inhibition) at 200 ppm [3] | percent control (mortality, anti-feedant effect or growth inhibition) at 200 ppm [4] | mortality at 500 ppm [5]

CC(NC(=O)c1cc(Cl)cc(C(F)(F)F)c1)c1nc(Br)nn1-c1ccc(OC(F)F)cn1 (stereo not drawn) [Compound P26, N-[1-[5-bromo-2-[5-(difluoromethoxy)-2-pyridyl]-1,2,4-triazol-3-yl]ethyl]-3-chloro-5-(trifluoromethyl) benzamide]
≥ 80%: percent control (mortality or growth inhibition) at 200 ppm [1] | percent control (mortality or growth inhibition) at 200 ppm [6] | percent control (mortality, anti-feedant effect or growth inhibition) at 200 ppm [2] | percent control (mortality or growth inhibition) at 200 ppm [3] | percent control (mortality, anti-feedant effect or growth inhibition) at 200 ppm [4]

CC(NC(=O)c1cc(Cl)cc(C(F)(F)F)c1)c1nc(Br)nn1-c1ncc(OCC(F)F)cn1 (stereo not drawn) [Compound P27, N-[1-[5-bromo-2-[5-(2,2-difluoroethoxy)pyrimidin-2-yl]-1,2,4-triazol-3-yl]ethyl]-3-chloro-5-(trifluoromethyl) benzamide]
≥ 80%: percent control (mortality or growth inhibition) at 200 ppm [1] | percent control (mortality, anti-feedant effect or growth inhibition) at 200 ppm [2] | percent control (mortality or growth inhibition) at 200 ppm [3] | percent control (mortality, anti-feedant effect or growth inhibition) at 200 ppm [4] | mortality at 500 ppm [5]

CC(NC(=O)c1cc(C(F)F)cc(C(F)(F)F)c1)c1nc(Br)nn1-c1ncc(OC(F)F)cn1 (stereo not drawn) [Compound P28, N-[1-[5-bromo-2-[5-(difluoromethoxy)pyrimidin-2-yl]-1,2,4-triazol-3-yl]ethyl]-3-(difluoromethyl)-5-(trifluoromethyl) benzamide]
≥ 80%: percent control (mortality or growth inhibition) at 200 ppm [1] | percent control (mortality, anti-feedant effect or growth inhibition) at 200 ppm [2] | percent control (mortality or growth inhibition) at 200 ppm [3] | percent control (mortality, anti-feedant effect or growth inhibition) at 200 ppm [4] | mortality at 500 ppm [5]

CC(NC(=O)c1cc(Cl)cc(C(F)(F)F)c1)c1nc(Br)nn1-c1ncc(OC(F)F)cn1 (stereo not drawn) [Compound P29, N-[1-[5-bromo-2-[5-(difluoromethoxy)pyrimidin-2-yl]-1,2,4-triazol-3-yl]ethyl]-3-chloro-5-(trifluoromethyl) benzamide]
≥ 80%: percent control (mortality or growth inhibition) at 200 ppm [1] | percent control (mortality, anti-feedant effect or growth inhibition) at 200 ppm [2] | percent control (mortality or growth inhibition) at 200 ppm [3] | percent control (mortality, anti-feedant effect or growth inhibition) at 200 ppm [4] | mortality at 500 ppm [5]

CC(NC(=O)c1cc(Br)cc(C(F)(F)F)c1)c1nc(Br)nn1-c1ccc(C#N)cn1 (stereo not drawn) [Compound P30, 3-bromo-N-[1-[5-bromo-2-(5-cyano-2-pyridyl)-1,2,4-triazol-3-yl]ethyl]-5-(trifluoromethyl) benzamide]
≥ 80%: percent control (mortality or growth inhibition) at 200 ppm [1] | percent control (mortality, anti-feedant effect or growth inhibition) at 200 ppm [2] | percent control (mortality or growth inhibition) at 200 ppm [3] | percent control (mortality, anti-feedant effect or growth inhibition) at 200 ppm [4] | mortality at 500 ppm [5]

CC(NC(=O)c1cc(Cl)cc(C(F)(F)F)c1)c1nc(Br)nn1-c1ccc(C#N)cn1 (stereo not drawn) [Compound P31, N-[1-[5-bromo-2-(5-cyano-2-pyridyl)-1,2,4-triazol-3-yl]ethyl]-3-chloro-5-(trifluoromethyl) benzamide]
≥ 80%: percent control (mortality or growth inhibition) at 200 ppm [1] | percent control (mortality, anti-feedant effect or growth inhibition) at 200 ppm [2] | percent control (mortality or growth inhibition) at 200 ppm [3] | percent control (mortality, anti-feedant effect or growth inhibition) at 200 ppm [4] | mortality at 500 ppm [5]

CC(NC(=O)c1cc(Br)cc(C(F)(F)F)c1)c1nc(Br)nn1-c1ncc(OCC(F)(F)F)cn1 (stereo not drawn) [Compound P41, 3-bromo-N-[1-[5-bromo-2-[5-(2,2,2-trifluoroethoxy)pyrimidin-2-yl]-1,2,4-triazol-3-yl]ethyl]-5-(trifluoromethyl) benzamide]
≥ 80%: percent control (mortality or growth inhibition) at 200 ppm [1] | percent control (mortality, anti-feedant effect or growth inhibition) at 200 ppm [2] | percent control (mortality or growth inhibition) at 200 ppm [3] | percent control (mortality, anti-feedant effect or growth inhibition) at 200 ppm [4] | mortality at 500 ppm [5]

CC(NC(=O)c1cc(C(F)F)cc(C(F)(F)F)c1)c1nc(Br)nn1-c1ncc(OCC(F)(F)F)cn1 (stereo not drawn) [Compound P42, N-[1-[5-bromo-2-[5-(2,2,2-trifluoroethoxy)pyrimidin-2-yl]-1,2,4-triazol-3-yl]ethyl]-3-(difluoromethyl)-5-(trifluoromethyl) benzamide]
≥ 80%: percent control (mortality or growth inhibition) at 200 ppm [1] | percent control (mortality, anti-feedant effect or growth inhibition) at 200 ppm [2] | percent control (mortality or growth inhibition) at 200 ppm [3] | percent control (mortality, anti-feedant effect or growth inhibition) at 200 ppm [4] | mortality at 500 ppm [5]

CC(NC(=O)c1cc(C(F)(F)F)cc(C(F)(F)F)c1)c1nc(Br)nn1-c1ncc(OCC(F)(F)F)cn1 (stereo not drawn) [Compound P44, N-[1-[5-bromo-2-[5-(2,2,2-trifluoroethoxy)pyrimidin-2-yl]-1,2,4-triazol-3-yl]ethyl]-3,5-bis(trifluoromethyl) benzamide]
≥ 80%: percent control (mortality or growth inhibition) at 200 ppm [1] | percent control (mortality, anti-feedant effect or growth inhibition) at 200 ppm [2] | percent control (mortality or growth inhibition) at 200 ppm [3] | percent control (mortality, anti-feedant effect or growth inhibition) at 200 ppm [4] | mortality at 500 ppm [5]

CC(NC(=O)c1cc(OC(F)F)cc(C(F)(F)F)c1)c1nc(Br)nn1-c1ncc(OCC(F)(F)F)cn1 (stereo not drawn) [Compound P45]
≥ 80%: percent control (mortality or growth inhibition) at 200 ppm [1] | percent control (mortality, anti-feedant effect or growth inhibition) at 200 ppm [2] | percent control (mortality or growth inhibition) at 200 ppm [3] | percent control (mortality, anti-feedant effect or growth inhibition) at 200 ppm [4] | mortality at 500 ppm [5]

CC(NC(=O)c1cc(OCC(F)(F)F)cc(C(F)(F)F)c1)c1nc(Br)nn1-c1ncc(OCC(F)(F)F)cn1 (stereo not drawn) [Compound P46, N-[1-[5-bromo-2-[5-(2,2,2-trifluoroethoxy)pyrimidin-2-yl]-1,2,4-triazol-3-yl]ethyl]-3-(2,2,2-trifluoroethoxy)-5-(trifluoromethyl) benzamide]
≥ 80%: percent control (mortality or growth inhibition) at 200 ppm [1] | percent control (mortality, anti-feedant effect or growth inhibition) at 200 ppm [2] | percent control (mortality or growth inhibition) at 200 ppm [3] | percent control (mortality, anti-feedant effect or growth inhibition) at 200 ppm [4] | mortality at 500 ppm [5]

CC(NC(=O)c1cc(Cl)cc(C(F)(F)F)c1)c1nc(Br)nn1-c1ccc(OCC(F)F)cn1 (stereo not drawn) [Compound P49, N-[1-[5-bromo-2-[5-(2,2-difluoroethoxy)-2-pyridyl]-1,2,4-triazol-3-yl]ethyl]-3-chloro-5-(trifluoromethyl) benzamide]
≥ 80%: percent control (mortality or growth inhibition) at 200 ppm [1] | percent control (mortality, anti-feedant effect or growth inhibition) at 200 ppm [2] | percent control (mortality or growth inhibition) at 200 ppm [3] | percent control (mortality, anti-feedant effect or growth inhibition) at 200 ppm [4] | mortality at 500 ppm [5]

CC(=O)c1nc(C(C)NC(=O)c2cc(C(F)(F)F)cc(C(F)(F)F)c2)n(-c2ccc(C#N)cn2)n1 (stereo not drawn) [Compound P57, N-[1-[5-acetyl-2-(5-cyano-2-pyridyl)-1,2,4-triazol-3-yl]ethyl]-3,5-bis(trifluoromethyl) benzamide]
≥ 80%: percent control (mortality or growth inhibition) at 200 ppm [1] | percent control (mortality, anti-feedant effect or growth inhibition) at 200 ppm [2] | percent control (mortality or growth inhibition) at 200 ppm [3] | percent control (mortality, anti-feedant effect or growth inhibition) at 200 ppm [4] | mortality at 500 ppm [5]
